Measured values: patent US10611740B2, “Aryl dihydro-2H-benzo[b][1,4]oxazine sulfonamide and related compounds for use as agonists of RORγ and the treatment of disease” (Lycera Corporation, priority 2015, dated 2020)

Legend:
Gal4-RORγ-LBD = target: T1, Gal4-RORγ-LBD (Homo sapiens, UniProt P51449); test: Gal4-RORγ Luciferase Reporter Assay in HEK-293T Cells; type: cell-based; settings: HEK-293 cells
T1 construct: expressed in transfected cells; host or cells: HEK-293 cells (pcDNA3.1neo plasmid)
T1 sequence (P51449 269-508 limits assumed): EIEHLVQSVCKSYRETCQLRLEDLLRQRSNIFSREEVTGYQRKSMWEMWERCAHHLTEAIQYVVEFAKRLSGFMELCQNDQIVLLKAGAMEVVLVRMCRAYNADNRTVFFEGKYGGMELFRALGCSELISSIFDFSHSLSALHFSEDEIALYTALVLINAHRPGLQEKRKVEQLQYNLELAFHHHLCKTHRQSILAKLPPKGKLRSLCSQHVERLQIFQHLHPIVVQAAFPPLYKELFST
In short: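 Luminescence read-out (One-Glo, 10 min RT) after overnight compound exposure at 37 °C in HEK-293 cells carrying Gal4-RORγ-LBD plus a Gal4-luciferase reporter, in the presence of 2 μM ursolic acid. Max Response is the upper plateau from a 4-parameter logistic fit, normalized to untreated signal = 100.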

RORγ-LBD = target: T2, RORγ-LBD (Homo sapiens, UniProt P51449); test: RORγ-Ligand Binding Domain (LBD) TR-FRET Assay; type: biochemical;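 as to TR-FRET Assay Max Response: 665/615 nm ratio relative to signal without ursolic acid or compound set at 100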
T2 construct: made in house; host or cells: SF9 cells (baculovirus)
T2 sequence (P51449 269-508 limits assumed): T1 sequence (P51449 269-508 limits assumed)
In short: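 This TR-FRET coactivator assay pairs baculovirus-expressed His-RORγ-LBD (~3 nM final) with biotin-SRC1 LXXLL peptide at 200 nM final in pH 7.0 Tris/KCl/EDTA/DTT/BSA buffer.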

[1] = luciferase reporter, with 2 μM ursolic acid

EC50 (Gal4-RORγ-LBD; 2 μM ursolic acid) [nM] | EC50 (RORγ-LBD) [nM] | EC50 (Gal4-RORγ-LBD; [1]) [nM] | SMILES | Gal4-RORγ Assay Max Response (Gal4-RORγ-LBD; 2 μM ursolic acid) | TR-FRET Assay Max Response (RORγ-LBD) | Gal4-RORγ Assay Max Response (Gal4-RORγ-LBD; [1])
< 500 | < 500 | – | O=C(O)[C@H]1C[C@H](C[C@H]2CN(S(=O)(=O)c3cccc(C(F)(F)F)c3)c3cc(-c4cc(F)cc(F)c4Cl)ccc3O2)C1 [Compound 60B, (1S,3r)-3-(((S)-6-(2-chloro-3,5-difluorophenyl)-4-((3-(trifluoro-methyl)phenyl)sulfonyl)-3,4-dihydro-2H-benzo[b][1,4]oxazin-2-yl)methyl)cyclobutane-1-carboxylic acid] | ** (The symbol “**” indicates a value in the range of greater than 90 to 150) | *** (The symbol “***” indicates a value in the range of greater than 150 to 200) | –
– | > 10000 | > 10000 | Cc1noc(C)c1-c1ccc2c(c1)N(S(=O)(=O)c1cccc(C(F)(F)F)c1)C[C@H](CCC(=O)O)O2 [Compound 2BO, (S)-3-(6-(3,5-dimethylisoxazol-4-yl)-4-((3-(trifluoromethyl)-phenyl)sulfonyl)-3,4-dihydro-2H-benzo[b][1,4]oxazin-2-yl)propanoic acid] | – | – | –
– | < 500 | < 500 | COc1cc(S(=O)(=O)N2C[C@H](CCc3n[nH]c(=O)o3)Oc3ccc(-c4cccc(C(F)(F)F)n4)cc32)ccc1F [Compound 28K, (S)-5-(2-(4-((4-fluoro-3-methoxyphenyl)sulfonyl)-6-(6-(trifluoromethyl)pyridin-2-yl)-3,4-dihydro-2H-benzo[b][1,4]oxazin-2-yl)ethyl)-1,3,4-oxadiazol-2(3H)-one] | – | **** (The symbol “****” indicates a value greater than 200) | ** (The symbol “**” indicates a value in the range of greater than 90 to 150)
– | < 500 | 500 to 5000 | CCOc1nn(CC)cc1S(=O)(=O)N1C[C@H](CCC(=O)O)Oc2ccc(-c3cccc(Cl)c3)cc21 [Compound 6A, (S)-3-(6-(3-chlorophenyl)-4-((3-ethoxy-1-ethyl-1H-pyrazol-4-yl)sulfonyl)-3,4-dihydro-2H-benzo[b][1,4]oxazin-2-yl)propanoic acid] | – | *** (The symbol “***” indicates a value in the range of greater than 150 to 200) | * (The symbol “*” indicates a value in the range of 25 to 90)
– | < 500 | < 500 | CC(C)(F)C(=O)NC[C@H]1CN(S(=O)(=O)c2cccc(C(F)(F)F)c2)c2cc(-c3cc(F)ccc3F)ccc2O1 [Compound 30BE, (S)-N-((6-(2,5-difluorophenyl)-4-((3-(trifluoromethyl)phenyl)-sulfonyl)-3,4-dihydro-2H-benzo[b][1,4]oxazin-2-yl)methyl)-2-fluoro-2-methylpropanamide] | – | *** (The symbol “***” indicates a value in the range of greater than 150 to 200) | * (The symbol “*” indicates a value in the range of 25 to 90)
– | < 500 | < 500 | O=C(O)CC[C@H]1CN(S(=O)(=O)c2cccc(C(F)(F)F)c2)c2cc(-c3cc(C(F)(F)F)cc(F)c3F)ccc2O1 [Compound 4AS, (S)-3-(6-(2,3-difluoro-5-(trifluoromethyl)phenyl)-4-((3-(trifluoromethyl)phenyl)-sulfonyl)-3,4-dihydro-2H-benzo[b][1,4]oxazin-2-yl)propanoic acid] | – | **** (The symbol “****” indicates a value greater than 200) | ** (The symbol “**” indicates a value in the range of greater than 90 to 150)
– | < 500 | < 500 | COc1cccc(-c2ccc3c(c2)N(S(=O)(=O)c2cccc(C(F)(F)F)c2)C[C@H](CCCC(=O)O)O3)c1 [Compound 21B, (S)-4-(6-(3-methoxyphenyl)-4-((3-(trifluoromethyl)phenyl)sulfonyl)-3,4-dihydro-2H-benzo[b][1,4]-oxazin-2-yl)butanoic acid] | – | **** (The symbol “****” indicates a value greater than 200) | ** (The symbol “**” indicates a value in the range of greater than 90 to 150)
< 500 | < 500 | – | O=C(O)[C@@H]1C[C@H]1[C@H]1CN(S(=O)(=O)c2cccc(C(F)(F)F)c2)c2cc(-c3cc(F)cc(OC(F)F)c3)ccc2O1 [Compound 55, (1R,2R)-2-((S)-6-(3-(difluoromethoxy)-5-fluorophenyl)-4-((3-(trifluoromethyl)phenyl)sulfonyl)-3,4-dihydro-2H-benzo[b][1,4]oxazin-2-yl)cyclopropane-1-carboxylic acid] | * (The symbol “*” indicates a value in the range of 25 to 90) | ** (The symbol “**” indicates a value in the range of greater than 90 to 150) | –
< 500 | < 500 | – | CC(C)(C[C@H]1CN(S(=O)(=O)c2cccc(C(F)(F)F)c2)c2cc(-c3cc(F)ccc3C(F)(F)F)ccc2O1)C(=O)O [Compound 32AV, (S)-3-(6-(5-fluoro-2-(trifluoro-methyl)phenyl)-4-((3-(trifluoro-methyl)phenyl)sulfonyl)-3,4-dihydro-2H-benzo[b][1,4]oxazin-2-yl)-2,2-dimethylpropanoic acid] | ** (The symbol “**” indicates a value in the range of greater than 90 to 150) | ** (The symbol “**” indicates a value in the range of greater than 90 to 150) | –
– | < 500 | 500 to 5000 | O=C(O)CC[C@H]1CN(S(=O)(=O)c2cc(C(F)(F)F)cnc2OCCO)c2cc(-c3cccc(Cl)c3)ccc2O1 [Compound 6G] | – | **** (The symbol “****” indicates a value greater than 200) | ** (The symbol “**” indicates a value in the range of greater than 90 to 150)
500 to 5000 | 500 to 5000 | – | CC(C)(C(=O)NC[C@H]1CN(S(=O)(=O)c2cccc(C(F)(F)F)c2)c2cc(-c3cccc(C(F)(F)F)n3)ccc2O1)C(F)(F)F [Compound 30BY, (S)-3,3,3-trifluoro-2,2-dimethyl-N-((4-((3-(trifluoromethyl)-phenyl)sulfonyl)-6-(6-(trifluoro-methyl)pyridin-2-yl)-3,4-dihydro-2H-benzo[b][1,4]-oxazin-2-yl)methyl)propanamide] | * (The symbol “*” indicates a value in the range of 25 to 90) | *** (The symbol “***” indicates a value in the range of greater than 150 to 200) | –
– | < 500 | < 500 | CN(C)c1cccc(-c2ccc3c(c2)N(S(=O)(=O)c2cccc(C(F)(F)F)c2)C[C@H](CCc2n[nH]c(=O)o2)O3)n1 [Compound 28B, (S)-5-(2-(6-(6-(dimethylamino)-pyridin-2-yl)-4-((3-(trifluoro-methyl)phenyl)sulfonyl)-3,4-dihydro-2H-benzo[b][1,4]oxazin-2-yl)ethyl)-1,3,4-oxadiazol-2(3H)-one] | – | **** (The symbol “****” indicates a value greater than 200) | ** (The symbol “**” indicates a value in the range of greater than 90 to 150)
< 500 | < 500 | – | O=C(O)C1(C[C@H]2CN(S(=O)(=O)c3cccc(C(F)(F)F)c3)c3cc(-c4cc(F)ccc4Cl)ccc3O2)CCOCC1 [Compound 78D, (S)-4-((6-(2-chloro-5-fluoro-phenyl)-4-((3-(trifluoromethyl)-phenyl)sulfonyl)-3,4-dihydro-2H-benzo[b][1,4]oxazin-2-yl)methyl)tetrahydro-2H-pyran-4-carboxylic acid] | *** (The symbol “***” indicates a value in the range of greater than 150 to 200) | ** (The symbol “**” indicates a value in the range of greater than 90 to 150) | –
500 to 5000 | < 500 | – | CC(=O)N[C@H](C)C(=O)NC[C@H]1CN(S(=O)(=O)c2cccc(C(F)(F)F)c2)c2cc(-c3cccc(F)c3Cl)ccc2O1 [Compound 30CJ, (R)-2-acetamido-N-(((S)-6-(2-chloro-3-fluorophenyl)-4-((3-(trifluoromethyl)phenyl)-sulfonyl)-3,4-dihydro-2H-benzo[b][1,4]oxazin-2-yl)methyl)propanamide] | * (The symbol “*” indicates a value in the range of 25 to 90) | ** (The symbol “**” indicates a value in the range of greater than 90 to 150) | –

SMILES | EC50 (Gal4-RORγ-LBD; 2 μM ursolic acid) [nM] | EC50 (RORγ-LBD) [nM] | EC50 (Gal4-RORγ-LBD; [1]) [nM] | Gal4-RORγ Assay Max Response (Gal4-RORγ-LBD; 2 μM ursolic acid) | TR-FRET Assay Max Response (RORγ-LBD) | Gal4-RORγ Assay Max Response (Gal4-RORγ-LBD; [1])
O=C(O)CC[C@H]1CN(S(=O)(=O)c2cccc(C(F)(F)F)c2)c2cc(-c3cc(F)ccc3F)ccc2O1 [Compound 2AD, (S)-3-(6-(2,5-difluorophenyl)-4-((3-(trifluoromethyl)-phenyl)sulfonyl)-3,4-dihydro-2H-benzo[b][1,4]oxazin-2-yl)propanoic acid] | – | < 500 | < 500 | – | **** (The symbol “****” indicates a value greater than 200) | *** (The symbol “***” indicates a value in the range of greater than 150 to 200)
